Key:
[1] = absorbed by the gastrointestinal tract, significant first-pass metabolism in the liver; cited from earlier work
[2] = tested on: osteoarthritis symptoms; conditions: cited from earlier work
[3] = tested on: weakness of hind legs; assay: Case report: 12 year old Weimaraner with weakness of hind legs (Example 3); type: in vivo, dog (Weimaraner); conditions: prednisone 20 mg per day
Method: A 12 year old Weimaraner developed weakness of his hind legs which limited his ability to jump and lift his leg to urinate. […] He was then started on the new composition, of the invention, comprising zinc acetate 20 mg and glucosamine sulfate 500 mg coated with polyvinylpirrolidone 7 mg taken twice a day. […] He was then maintained on glucosamine sulfate 500 mg and zinc acetate 10 mg, twice a day for 11 months until his death.

[4] = most common adverse effect of zinc therapy; cited from earlier work

In the case of `N[C@H]1C(O)O[C@H](CO)[C@@H](O)[C@@H]1O` (some centres unmarked) [Glucosamine], the bioavailibility [1] is given as 26%.
In the case of `N[C@H]1C(O)O[C@H](CO)[C@@H](O)[C@@H]1O.O=S(=O)(O)O` (some centres unmarked) [glucosamine sulfate], the “persistence of clinical improvement after discontinuation” value ([2]; after discontinuation) is listed as “up to four weeks” and the “onset of clinical improvement of symptoms” value ([2]; after oral administration) is listed as “as early as one week”.
With `C[C@]12C=CC(=O)C=C1CC[C@@H]1[C@@H]2C(=O)C[C@@]2(C)[C@H]1CC[C@]2(O)C(=O)CO` [prednisone] the “response of hind leg weakness” value [3] was “limited success”.
In the case of `[Zn]` [zinc], the “gastrointestinal irritation, share of patients” value [4] is given as “approximately 10 % of patients”.
